According to patent publication US20080317728A1, “Lowering Uric Acid to Prevent or Accelerate Recovery of Acute Renal Failure” (UNIVERSITY OF FLORIDA RESEARCH FOUNDATION, INC., priority 2004, published 2008):

System: normal rats on normal sodium diet
Experiment: Micropuncture (glomerular hemodynamics) in normal rats on normal sodium diet
Type: in vivo, Sprague-Dawley rats
Experimental: Experimental Design: All animal procedures were approved by the Animal Care Committee. Male 300-350 g Sprague-Dawley rats were used in all experiments.
Hyperuricemia in normal rats on normal sodium diet: To produce hyperuricemia, rats were administered oxonic acid (OA) (Sigma, St Louis Mo., USA) 750 mg/kg body weight by gastric gavage. To prevent the rise of serum uric acid induced by OA, allopurinol (AP) (Sigma, St Louis Mo., USA) was administered in drinking water (150 mg/L). We studied the following groups: Control (n=8); OA (n=7) and OA plus allopurinol (n=9). Systolic blood pressure and serum uric acid were measured at baseline and after 30-33 days of follow-up. Micropuncture studies were performed at 5 weeks.
Micropuncture: Animals were anesthetized with pentobarbital sodium (30 mg/kg ip) and placed on a thermoregulated table to maintain body temperature at 37° C. Trachea, jugular veins, femoral arteries, and the left ureter were catheterized with polyethylene tubing (PE-240, PE-50, and PE-10). The left kidney was exposed, placed in a Lucite holder, sealed with agar, and covered with Ringer's solution. Mean arterial pressure (MAP) was monitored with a pressure transducer (Model p23 db; Gould, San Juan, PR) and recorded on a polygraph (Grass Instruments, Quincy, Mass., USA). Blood samples were taken periodically and replaced with blood from a donor rat. Rats were maintained under euvolemic conditions by infusion of 10 ml/kg of body weight of isotonic rat plasma during surgery, followed by an infusion of 25% polyfructosan, at 2.2 ml/h (Inutest, Laevosan-Gesellschaft, Linz, Austria). After 60 min, five to six 3-min collection samples of proximal tubular fluid were obtained to determine flow rate and polyfructosan concentration. Intratubular pressure under free-flow and stop-flow conditions and peritubular capillary pressure were measured in other proximal tubules with a servo-null device (Servo Nulling Pressure System; Instrumentation for Physiology and Medicine, San Diego, Calif., USA). Polyfructosan was measured in plasma samples. Glomerular colloid osmotic pressure was estimated in protein from blood of the femoral artery (Ca) and surface efferent arterioles (Ce). Polyfructosan concentrations were determined by the technique of Davidson and Sackner (Davidson W D, Sackner Mass.: Simplification of the Antrhone Method for the Determination of Inulin in Clearance Studies. J. Lab Clin. Med. 62:351-356, 1963). The volume of fluid collected from individual proximal tubules was estimated from the length of the fluid column in a constant bore capillary tube of known internal diameter. Concentration of tubular polyfructosan was measured by the method of Vurek and Pegram (Vurek G G, Pegram S E: Fluorometric method for the determination of nanogram quantities of inulin. Ann. Biochem 16:409-419, 1966). Protein concentration in afferent and efferent samples was determined according to the method of Viets et al. (Viets J W, Deen W M, Troy J L, Brenner B M: Determination of serum protein concentration in nanoliter blood samples using fluorescamine or 9-phthalaldehyde. Anal. Biochem 88:513-521, 1978). MAP, GFR, single-nephron GFR (SNGFR), glomerular capillary hydrostatic pressure (Pgc), single-nephron plasma flow (QA), afferent (RA) and efferent (RE) resistances, and Kf, were calculated according to equations given elsewhere (Baylis C, Deen W M, Myers B D, Brenner B M: Effects of some vasodilator drugs on transcapillary fluid exchange in renal cortex. Am. J. Physiol 230:1148-1158, 1976).
Statistical analysis. Values are expressed as mean±standard error (SE). Differences between groups were evaluated by ANOVA with appropriate correction for multiple comparisons (Bonferroni). The relation between variables was assessed by correlation analysis.

[1] = micropuncture at 5 weeks, mean±SE

Structure (SMILES) | afferent resistance higher (hyperuricemic vs control) | decrease of SNGFR (hyperuricemic vs control) | efferent resistance higher (hyperuricemic vs control) | GFR [1] | KF (ultrafiltration coefficient) [1] | MAP (mean arterial pressure) [1] | PGC (glomerular capillary hydrostatic pressure) [1] | QA (single-nephron plasma flow) [1] | RA (afferent resistance) [1] | RE (efferent resistance) [1] | SNGFR (single-nephron GFR) [1] | effect on glomerular hemodynamic alterations of hyperuricemia (concomitant with oxonic acid)
O=C(O)c1nc(=O)[nH]c(=O)[nH]1 [OA, oxonic acid] | 45% | 35% | 64% | 0.71 ± 0.1 mL/min | 0.027 ± 0.002 nl/s/mmHg | 131 ± 4 mmHg | 56 ± 2 mmHg | 66.1 ± 7.2 nL/min | 4.82 ± 0.67 dyn/s/cm^−5 | 2.83 ± 0.19 dyn/s/cm^−5 | 17.8 ± 2 nL/min | 
Oc1ncnc2[nH]ncc12 [AP, allopurinol] |  |  |  |  |  |  |  |  |  |  |  | prevented these alterations
